This passage reports pest or weed control results from US20100305124A1, “Acylated Aminopyridine and Aminopyridazine Insecticides” (BAYER CROPSCIENCE AG, priority 2009, published 2010).

The test system of the first assay is green peach aphid (Myzus persicae). The assay can be described thus: Myzus test (MYZUPE spray treatment), Chinese cabbage leaf discs. It counts as in vivo. The note with it: foliar, application rate of 20 g/ha, spray on Chinese cabbage discs, read-out: effect in % (aphids killed). Here is the method:
Myzus Test (MYZUPE Spray Treatment)
Solvents: 78 parts by weight of acetone • • 1.5 parts by weight of dimethylformamide Emulsifier: 0.5 part by weight of alkylaryl polyglycol ether
An appropriate preparation of active ingredient is prepared by mixing 1 part by weight of active ingredient with the stated amounts of solvents and emulsifier and diluting the concentrate with emulsifier-containing water to the desired concentration.
Discs of Chinese cabbage (Brassica pekinensis) infested with all stages of the green peach aphid (Myzus persicae) are sprayed with a preparation of active ingredient at the desired concentration.
After the desired time, the effect in % is determined. Here, 100% means that all of the aphids have been killed; 0% means that no aphids have been killed.
Turning to `Cc1ncccc1-n1ncc(C(=O)Nc2cccnc2)c1C` [I-2], the pest or weed control at 20 g/ha is at least 80%.

The assay is the same for the next values; noted with them: foliar, application rate of 500 g/ha, spray on Chinese cabbage discs, read-out: effect in % (aphids killed).
Take `O=C(Nc1cccnc1)c1cnn(CC(F)(F)F)c1-c1cnccn1` [I-257]: the pest or weed control at 500 g/ha was at least 80%. On to `O=C(Nc1cccnc1)c1ccc(F)c(C(F)(F)F)c1` [I-258], for which the pest or weed control at 500 g/ha is at least 80%. For the molecule `CN(C(=O)c1ccc(F)c(C(F)(F)F)c1)c1cccnc1` [I-259], the pest or weed control at 500 g/ha is at least 80%.

As to `COc1ccc(C(=O)N(C)c2cccnc2)cc1OC` [I-260], the pest or weed control at 500 g/ha is at least 80%. `CN(C(=O)c1ccc2c(c1)OC(F)(F)O2)c1cccnc1` [I-261]: the pest or weed control at 500 g/ha is at least 80%. Still for that read-out and setting: for `CN(C(=O)c1cccc(C(F)(F)F)c1)c1cccnc1` [I-262] the value was at least 80%; for `COc1ccc(C(=O)Nc2cccnc2)cc1OC` [I-263], at least 80%; for `O=C(Nc1cccnc1)c1ccc(OC(F)(F)F)cc1` [I-264], at least 80%. Regarding `CN(C(=O)c1ccc(OC(F)(F)F)cc1)c1cccnc1` [I-266], the pest or weed control at 500 g/ha was at least 80%.

On to `CN(C(=O)c1cnn(-c2ncccn2)c1C(F)(F)F)c1cccnc1` [I-268, 1-Pyrimidin-2-yl-5-trifluoromethyl-1H-pyrazole-4-carboxylic acid methylpyridin-3-ylamide], for which the pest or weed control at 500 g/ha is at least 80%. The same measure, in the same setting: for `CN(C(=O)c1cnn(CC(F)(F)F)c1C(F)F)c1cccnc1` [I-269] the value was at least 80%; for `COCc1c(C(=O)N(C)c2cccnc2)cnn1CC(F)(F)F` [I-270], at least 80%.

As to `CN(C(=O)c1cnn(-c2ccccc2Cl)c1C(F)(F)F)c1cccnc1` [I-271], the pest or weed control at 500 g/ha was at least 80%. The same measure, in the same setting: for `CN(C(=O)c1cnn(-c2ncccc2Cl)c1C(F)(F)F)c1cccnc1` [I-272] the value was at least 80%.

Take `COCc1c(C(=O)N(C)c2cccnc2)cnn1-c1ncccn1` [I-273]: the pest or weed control at 500 g/ha is at least 80%. Same read-out and setting: the value for `CN(C(=O)c1cnn(-c2ncccn2)c1C(F)F)c1cccnc1` [I-274] was at least 80%; that for `COC(C)c1c(C(=O)N(C)c2cccnc2)cnn1CC(F)(F)F` (centres unmarked) [I-275] was at least 80%; that for `COC(C)c1c(C(=O)N(C)c2cccnc2)cnn1-c1ncccn1` (centres unmarked) [I-276] was at least 80%.

As for `CN(C(=O)c1cnn(-c2ncccn2)c1C(C)(F)F)c1cccnc1` [I-277], the pest or weed control at 500 g/ha is at least 80%. Consider `CN(C(=O)c1csc(-c2ncccc2Cl)n1)c1cccnc1` [I-278], for which the pest or weed control at 500 g/ha was at least 80%. In the case of `CC(C)Oc1ccc(C(=O)N(C)c2cccnc2)cc1-n1ccc(C(F)(F)F)n1` [I-279], the pest or weed control at 500 g/ha is at least 80%.

Take `COc1ccc(C(=O)N(C)c2cccnc2)cc1-n1cccn1` [I-280, 4-Methoxy-N-methyl-3-pyrazol-1-yl-N-pyridin-3-ylbenzamide]: the pest or weed control at 500 g/ha is at least 80%. Still for that read-out and setting: for `Cn1cc(C(=O)Nc2ccnnc2)c(C(F)(F)F)n1` [I-281] the value was at least 80%.

Another assay has the same test system. The assay can be described thus: Myzus test (MYZUPE), sprayed aubergine plants. The note with it: application rate of 500 ppm, spray on aubergine plants, read-out: effect in % (aphids killed). Format: in vivo. The method in brief:
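Aubergine plants infested with all aphid stages sprayed with active ingredient in DMF/polyoxyethylenealkyl phenyl ether emulsifier, diluted with water to the test concentration. After the set time, mortality scored in %, where 100% means all aphids killed and 0% none.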
For `CCN(CC)C(=O)c1ccc(C(=O)Nc2cccnc2)cc1` [I-250], the pest or weed control at 500 ppm was at least 80%. Same read-out and setting: for `CCN(CC)C(=O)c1ccc(C(=O)N(CC)c2cccnc2)cc1` [I-251] the value was at least 80%; for `CC(=O)N(C)c1ccc(C(=O)Nc2cccnc2)cc1` [I-252], at least 80%; for `CC(=O)N(C)c1ccc(C(=O)N(C)c2cccnc2)cc1` [I-253], at least 80%. On the same count and under the same terms, the value for `CCN(C(=O)c1ccc(N(C)C(C)=O)cc1)c1cccnc1` [I-254] was at least 80%; that for `CN(C(=O)c1ccc(C(=O)NCc2ccccc2)cc1)c1cccnc1` [I-255] was at least 80%.

Staying with this assay, now noted: read-out: effect in % (aphids killed).
With `CN(C(=O)c1ccc(N(C)C(=O)C(F)(F)C(F)(F)C(F)(F)F)cc1)c1cccnc1` [I-247], the pest or weed control at 500 ppm was at least 80%.

For the molecule `CCN(C(=O)c1ccc(N(C)C(=O)C(F)(F)C(F)(F)C(F)(F)F)cc1)c1cccnc1` [I-248], the pest or weed control at 500 ppm is at least 80%.
